In data set [1] the target is OCT3 (Homo sapiens (Human), UniProt O75751). To be noted: Non Patent Literature 1; read-out: IC50 (reported); cited from earlier work.
A short description of data set [2]: measured Brain/Blood verification experiment in BALB/c mice. The format is in vivo. To be noted: mouse, 5 mg/kg, five minutes after administration, brain homogenate vs plasma. The protocol:
The Brain/Blood value predicted with the above method was verified with an experiment using BALB/c mice. As test substances in the verification experiment, two compounds of SR-4277 and Famotidine were used. […] The test substance was administered in 5 mg/kg to the mice. The mice were anesthetized in advance with isoflurane, and exsanguination was performed from the vena cava of the mice five minutes after the administration. Brains were removed, and weights thereof were measured. After that, a brain homogenate was prepared. The collected blood was subjected to centrifugation, and plasma was thereby prepared. Concentrations of the test substance in plasma and the brain homogenate were measured with HPLC and MS.

The test system of data set [3] is ddY male mice. Briefly: forced swimming test. The following applies: low dose administered alone (imipramine 4 mg/kg or OCT3 inhibitor 0.25 μl/hr). Type of data set: in vivo.
Method: In this forced swimming test, mice or rats as test animals are forced to swim in water tanks from which the mice or rats cannot escape. Then, an immobility behavior of the test animals after an escape behavior thereof (a state in which only the head is above the water surface and the test animals are floating without moving the hands or feet) is observed. When the test animals are put into the water tanks again 24 hours or more later, the immobility behavior is expressed earlier than in the first experiment. Duration of this immobility behavior for a certain time (usually about 5 minutes) is relatively accurately reproduced.
Specifically, a test is performed as follows.
In an experiment, ddY male mice each weighing 28 to 33 g (Japan SLC, Inc.) are used. […] After being acquired, these mice are bred in a room in which temperature (22 to 24° C.), humidity (50 to 60%), and lighting (lighting 8:00 to 20:00) are controlled for three or more days. In the first forced swimming test, all the experimental mice are forced to swim in glass cylinders (diameter 15.5 cm, depth 17 cm, water depth 12 cm, water temperature 25° C.) for 300 seconds to measure immobility time. The mice are distributed into experimental groups (an OCT3 inhibitor-administrated group, a positive control group, and a negative control group) such that an average value of the immobility time is almost the same. […]

Bounds are passed on as bounds.

Chain of OCT3 (O75751 whole entry): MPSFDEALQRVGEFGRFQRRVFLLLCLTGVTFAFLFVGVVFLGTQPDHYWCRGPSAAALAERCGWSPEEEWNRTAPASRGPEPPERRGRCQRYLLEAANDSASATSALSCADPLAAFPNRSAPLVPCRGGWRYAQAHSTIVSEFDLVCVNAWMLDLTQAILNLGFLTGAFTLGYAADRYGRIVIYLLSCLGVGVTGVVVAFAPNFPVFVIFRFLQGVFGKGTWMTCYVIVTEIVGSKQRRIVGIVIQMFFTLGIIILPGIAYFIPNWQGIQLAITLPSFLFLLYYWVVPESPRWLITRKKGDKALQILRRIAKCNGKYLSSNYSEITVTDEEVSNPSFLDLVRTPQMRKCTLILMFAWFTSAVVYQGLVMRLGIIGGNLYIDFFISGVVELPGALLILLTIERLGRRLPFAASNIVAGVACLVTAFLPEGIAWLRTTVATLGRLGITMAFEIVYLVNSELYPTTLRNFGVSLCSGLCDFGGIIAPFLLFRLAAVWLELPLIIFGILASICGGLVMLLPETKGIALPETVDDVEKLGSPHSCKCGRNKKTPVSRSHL

For the molecule `Cn1cc(C(=O)[C@@H]2CCc3nc[nH]c3C2)c2ccccc21` [ramosetron], the IC50 in data set [1] was at most 100 µM.

Turning to `CN/C(=N/CCSCc1nc[nH]c1C)NC#N` [cimetidine], the IC50 in data set [1] is 240 µM.

`NC(N)=Nc1nc(CSCCC(N)=NS(N)(=O)=O)cs1` [Famotidine] displayed a Kp at 5 min in data set [2] of 0.1. The IC50 in data set [1] is 20 µM.

`CN1C2CCCC1CC(NC(=O)c1nn(C)c3ccccc13)C2` (stereo not drawn) [granisetron]: the IC50 in data set [1] was at most 100 µM. `CN(C)CCCN1c2ccccc2CCc2ccccc21` [imipramine]: the “average value of the immobility time” value in data set [3] is on record as “about 200 seconds”.

A word on the IC50: it is the concentration needed to halve the response being measured. What is called Kp is the ratio of the level in a tissue or fluid to that in plasma or blood.

The values above are taken from patent publication US10149840B2, “OCT3 activity inhibitor containing imidazopyridine derivative as active component, and OCT3 detection agent” (SHIN NIPPON BIOMEDICAL LABORATORIES, LTD., priority 2012, dated 2018).
